Results: patent US20200087625A1, “METHODS FOR ISOLATING, EXPANDING AND ADMINISTERING CANCER SPECIFIC CD8+ T CELLS” (priority 2017, published 2020)

Key:
[1] = tested on: LLC-GLF cells; test: IV metastasis model of Lewis lung carcinoma (LLC); assay type: in vivo, mice; details: systemic 1V270 day -1
Method: FIGS. 27A-27D. […] Therapeutic effects of 1V270 were evaluated in IV metastatic models of 816 melanoma (A, B) and LLC (C, D). BG-albino mice (n=B-10) (A, C), C57BL6 wild type mice (n=15-20) (B and D), were i.p. administered with 200 μg 1V270 or vehicle!iNext day, 5×10^5 B16-GLF cells (A) or 1×10^5 LLC-GLF cells (c) were i.v. administered (A,C). The tumor signals were quantified by IVIS at day 14. […] (B,D) The mice were monitored daily and were euthanized upon reaching the criteria according to UCSD IACUC guidelines. The survival data were analyzed by Log-Rank test. Data were pooled from 2 independent experiments showing similar results and were analyzed by Living Image® software. […] Statistical differences were analyzed by the Mann-Whitney U test comparing 1V270 treatment groups against the vehicle. **P<0.05.
(§1) GFP and luciferase (GLF)-expressing tumor cells (2×10^4 of 4T1-GLF, 5×10^5 of B16-GLF, and […] of LLC-GLF) were i.v. injected into BALB/c mice for 4T1 models, BG-albino or wild-type C57BU6 for B16 melanoma or LLC models). […] Image data were acquired by 1 Ss exposure using the IVIS Spectrum and analyzed using the Living Image software, version 4.5.2 (Perkin Elmer, Waltham, Mass.). We confirmed that the tumor signals in the lungs at day 10 correlated with the number of lung metastasis determined on day 21, as well as the overall survival (Supplemental figures 10). […]

[2] = tested on: 4T1-GLF cells; test: In vivo imaging (IVIS) of lung tumor signals, 4T1-GLF; parameters: species or system BALB/c mice; details: 200 μg i.p. day -1; early phase 3 h and 6 h, late phase days 7, 10, 14
Method: FIGS. 25A-25F. Innate immune cells, NK cells and dendritic cells are activated following 1V270 therapy and contribute to anti-metastatic effects (A-C) Systemic administration of 1V270 activates dendritic cells and increases CD8^+ cell recruitment in the lung draini lymph node. (A) BALB/c mice (n=S/group) were treated with 1V270 on day −1 and then tumor cells were i.v. administered on day 0. Seven days later, mediastinal lymph node (mLN) cells were stained for dendritic cells (DC; CD45^+CD11c^+MHC classll^+). (B) DCs were further stained for CD80 and CD86. […] Tumor signals were quantified by IVIS. […] On the next day, lung cells were stained for NK markers (CD45^+[…] NKp46^+CD49^+) and analyzed by flow cytometry. […] Tumor signals were analyzed as described above. […]
as §1

CCCCCCCCC=CCCCCCCCC(=O)OCC(COP(=O)(O)OCCNC(=O)c1ccc(Cn2c(=O)[nH]c3c(N)nc(OCCOC)nc32)cc1)OC(=O)CCCCCCCC=CCCCCCCCC (stereo not drawn) [1V270]
lung metastasis (IVIS tumor signal) ([1]; LLC-GLF, day 14): inhibited lung metastasis by day 14 | mouse survival ([1]; LLC): prolonged mouse survival | lung tumor signals (IVIS) [2]: significantly suppressed the tumor signals
